Source: patent publication US9700637B2, “Reaction-based fluorescent probes for detecting zinc” (Massachusetts Institute of Technology, priority 2013, dated 2017)

Experiments:
[1] = Octanol/aqueous buffer partition coefficient (modified shake-flask); format: physicochemical; conditions: octanol/water, buffered at pH 7 with 10 mM Tris
Text: To understand better the limitations of TPP in directing fluorophores to mitochondria, we prepared two additional TPP-derivatives, one based on 6-carboxyfluorescein (FL-TPP) and one on coumarin 343 (C343-TPP). […] To test this hypothesis, we conducted live cell fluorescence imaging experiments with FL-TPP. […] Not only did FL-TPP fail to accumulate in mitochondria, it was cell-impermeable under our imaging conditions. In contrast, the cationic C343-TPP strongly colocalized with MitoTracker Red in live HeLa cells (Pearson's r=0.72±0.02). To quantify the effect of hydrophobicity in mitochondrial-targeting, we measured the octanol/aqueous buffer partition coefficient (log P) for our TPP constructs and two MitoTracker dyes. We then tabulated the log P, charge of the predominate species in solution at physiological pH, and cellular localization for each dye (Table 1). […] Along with cationic charge, a minimum level of lipophilicity must be reached in order to evade endo/lysosomal sequestration and enable effective mitochondrial targeting.

HeLa cells = experiment: Live cell fluorescence imaging: localization, co-localization and uptake; format: cell-based; conditions: fluorescence microscopy, live HeLa cells (Table 1)
Experimental: FIG. 6 depicts live cell imaging of HeLa cells. 500 nM mitotracker Red was bath-applied along with 1 μM DA-ZP1-TPP for 30 min at 37° C. and 5% CO2. After exposure to 25 μM 1:2 zinc:pyrithione, fluorescent images were acquired and the co-localization of the two sensors was assessed. The calculated Pearson's correlation coefficient (r) was r=0.581±0.097 (n=9), which represents the average of 9 ROIs over three independent plates.
FIG. 14 depicts live cell imaging of HeLa cells. 1 μM Lysotracker Red was bath-applied along with 2 μM ZP1-TPP. The calculated Pearson's correlation coefficient (r) was r=0.45±0.15, which represents the average of 9 ROIs over three independent plates.
FIG. 24 depicts fluorescence images of live HeLa cells. HeLa cells were pretreated with a 1 μM solution of DA-ZP1-TPP in dye- and serum-free medium for 30 min (37° C., 5% CO2). […] The signal from MitoTracker Red (c) correlates well with the signal from the zinc-bound sensor (d). Pearson's r=0.64±0.1 (n=18).
FIG. 27 depicts deconvoluted fluorescence microscopy images of live HeLa cells pretreated with ZP1-R9 (5 μM) or DA-ZP1-R9 (2.5 μM) and the indicated organelle stain. Top, ZP1-R9: (a) Differential interference contrast (DIC) image, (b) signal from ZP1-R9, (c) signal from LysoTracker Red, (d) overlay of (b) and (c). Pearson's r=0.42±0.16 (n=8). Bottom, DA-ZP1-R9: (e) DIC, (f) signal from DA-ZP1-R9 after treatment with 25 μM ZnPT, (g) signal from Hoechst 33258, (h) overlay of (f) and (g). Scale bar=25 μm.
FIG. 29 depicts deconvoluted fluorescence microscopy images of live HeLa cells pretreated with 1 μM DA-ZP1-R9 and 100 nM Dextran Red. (a) Differential interference contrast (DIC), (b) signal from DA-ZP1-R9 after addition of 25 μM ZnPT (c) signal from Dextran Red, (d) overlay of (b) and (c). Pearson's r=0.55±0.12 (n=11). Scale bar=25 μm.
FIG. 31 depicts deconvoluted fluorescence microscopy images of ZP1-(Fxr)3 and DA-ZP1-r(Fxr)3 in live HeLa cells. Top, cells pretreated with medium containing 2.5 μM of ZP1-(Fxr)3: (a) Differential interference contrast (DIC) image, (b) signal from ZP1-(Fxr)3, (c) signal from Dextran Red, (d) overlay of (b) and (c). Pearson's r=0.71±0.07. Bottom, cells pretreated with 1 μM DA-ZP1-r(Fxr)3: (e) DIC, (f) signal from DA-ZP1-r(Fx)3 after treatment with 25 μM ZnPT, (g) signal from MitoTracker Red, (h) overlay of (f) and (g). Pearson's r=0.41±0.09. Scale bar=25 μm.
FIG. 33 depicts deconvoluted fluorescence microscopy images of DCF-r(Fxr)3 and DA-DCF-r(Fxr)3 in live HeLa cells. Top, cells pretreated with 5 μM DCF-r(Fxr)3 and 500 nM MitoTracker Red for 30 min. (a) differential contrast image (DIC), (b) signal from DCF-r(Fxr)3, (c) signal from MitoTracker Red. Bottom, cells pretreated with 5 μM DA-DCF-r(Fxr)3 and 500 nM MitoTracker Red for 30 min. (d) DIC, (e) signal from DCF-r(Fxr)3, (f) signal from MitoTracker Red. The global Pearson's r=0.57±0.16 (n=37). Cells with high levels of DA-DCF-r(Fxr)3 (e, red outline) have a higher Pearson's r=0.83±0.08 (n=10). Scale bar=25 μm.
We used HeLa cells as a model system to evaluate the ability of DA-ZP1-TPP to target mitochondria and respond to changes in intracellular zinc levels. […] Over a two-hour period, the fluorescence intensity from the sensor remained constant, implying that the acetylated form is stable against intracellular esterases (FIG. 24e). […] Addition of 100 μM TPEN attenuated the fluorescence signal by ˜2.4-fold (FIG. 24f). […]

[2] = Charge of predominate species in solution at physiological pH; format: physicochemical; conditions: physiological pH = 7.4
[3] = Deacetylation kinetics monitored by UV-vis absorbance (metal-mediated and uncatalyzed hydrolysis); format: physicochemical; conditions: analogous conditions, EDTA or ZnCl2
Experimental: (§1) FIG. 23 depicts kinetic traces for the deacetylation of DA-ZP1-TPP. The half-life for deacetylation of a 2.75 μM solution of DA-ZP1-TPP, at 37° C. in 50 mM PIPES buffer (pH 7) and 100 mM KCl, was measured in the presence of 125 μM ZnCl2 (+Zn), 250 μM EDTA (−Zn), or 1.25 units of porcine liver esterase (Esterase). The change in absorbance at 520 nm (EDTA and esterase) or 510 nm (ZnCl2) was used to monitor the reaction.
FIG. 26 depicts in vitro characterization of DA-ZP1-A3. (a) UV-vis and (b) fluorescence spectra of a 5 μM solution of DA-ZP1-A3 in buffer (50 mM PIPES, 100 mM KCl; pH 7). Spectra were acquired initially, upon addition of 100 μM ZnCl2, and again after addition of 200 μM EDTA. (c) Time-dependent change in the normalized absorbance of a ca. 5 μM solution DA-ZP1-A3 at 37° C. in buffer (50 mM PIPES, 100 mM KCl; pH 7) in the presence of 100 μM ZnCl2 (λabs=510 nm) or EDTA (λabs=520 nm). (d) Integrated fluorescence intensity of a 1 μM solution of ZP1-A3 (circles) or DA-ZP1-A3 (squares) as a function of pH. […]
DA-ZP1-TPP has a zinc-induced fluorescence response and is relatively stable to uncatalyzed hydrolysis and esterase activity. […] Other late 3d-block transition metal ions, such as Co(II) and Cu(II), can coordinate to DA-ZP1-TPP but are generally not available in appreciable chelatable quantities within the cell. […]

porcine liver esterase = experiment: Deacetylation by porcine liver esterase (UV-vis absorbance); format: in vitro ADME; conditions: analogous conditions, porcine liver esterase
Experimental: as §1
DA-ZP1-TPP has a zinc-induced fluorescence response and is relatively stable to uncatalyzed hydrolysis and esterase activity. […] Other late 3d-block transition metal ions, such as Co(II) and Cu(II), can coordinate to DA-ZP1-TPP but are generally not available in appreciable chelatable quantities within the cell. In addition to monitoring selectivity in the fluorescence response, we used UV-vis spectroscopy to investigate the rate and zinc-specificity of metal-mediated ester hydrolysis. DA-ZP1-TPP deacetylation results in opening of the lactone ring and restoration of conjugation across the xanthene ring. By monitoring the absorbance of the xanthene it system, we could interrogate deacetylation kinetics in a manner that is independent of the fluorescence response. […] To determine whether ester hydrolysis depends on the metal-binding core of DA-ZP1-TPP, we measured the deacetylation kinetics of fluorescein diacetate (DA-FL) under analogous conditions. […]

| log P [1] | Charge of the predominate species in solution [2] | response to esterase (deacetylation) (porcine liver esterase) | logP ([1]; octanol/aqueous buffer) | Compound | Localization (HeLa cells) | stability to hydrolysis and zinc-mediated deacetylation [3] |
| --- | --- | --- | --- | --- | --- | --- |
| 0.72 ± 0.05 | +1 | – | – | O=C(NCC[P+](c1ccccc1)(c1ccccc1)c1ccccc1)c1cc2cc3c4c(c2oc1=O)CCCN4CCC3 [C343-TPP] | Mitochondria | – |
| – | – | responds rapidly to esterase | – | CC(=O)Oc1ccc2c(c1)Oc1cc(OC(C)=O)ccc1C21OC(=O)c2ccccc21 [DA-FL, fluorescein diacetate, reference compound] | – | relatively stable to hydrolysis and zinc-mediated deacetylation |
| – | +1 | – | 0.56 ± 0.02 | CN1/C(=C/C=C/c2n(Cc3ccc(CCl)cc3)c3cc(Cl)c(Cl)cc3[n+]2Cc2ccc(CCl)cc2)Oc2ccccc21 [Mitotracker Green, reference compound] | Mitochondria | – |
| 1.15 ± 0.04 | +1 | – | – | ClCc1ccc(C2=c3cc4c5c(c3Oc3c2cc2c6c3CCCN6CCC2)CCC[N+]=5CCC4)cc1.[Cl-] [Mitotracker Red, reference compound] | Mitochondria | – |
